Consider one compound from patent US20160102316A1, “STRESS TOLERANT PLANTS” (CONSEJO SUPERIOR DE INVESTIGACIONES CIENTIFICAS(CSIC), priority 2013, published 2016).

The target in assay [1] is T1, PP2C-ABA-PYL8 ternary complexes (Arabidopsis thaliana, UniProt Q9FGM1).
T1 sequence (Q9FGM1 1-188): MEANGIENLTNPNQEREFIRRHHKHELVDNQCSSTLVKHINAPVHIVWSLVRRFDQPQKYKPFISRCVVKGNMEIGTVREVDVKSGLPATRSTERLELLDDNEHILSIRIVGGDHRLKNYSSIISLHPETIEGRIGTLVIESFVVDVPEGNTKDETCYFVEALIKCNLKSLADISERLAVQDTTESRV
The conditions noted are these: ternary complex of PYL8 with ABA and clade A PP2C; cited from earlier work.

The test system of a further assay is PYL8 gene expression. The note with it: after 3 h of ABA treatment; cited from earlier work.
For the next assay, the system named is HA-PYL8 transcript. Description: HA-PYL8 transcript levels in ABA-treated seeds (semiquantitative RT-PCR). It counts as in vivo, Arabidopsis. The conditions noted are these: oeHA-PYL8 seeds, ABA treatment for 24 h. Here is the method: Semiquantitative PCR experiments from seedlings were performed using RNA prepared as afore-mentioned. RNA extraction from seeds was carried out as previously described (Onate-Sanchez and Vicente-Carbajosa, 2008). cDNA from all tissues was synthetized as described above. […] of one-fifth diluted cDNA was used to amplify DDA1-GFP, 3HA-PYL8 and the housekeeping gene ACTIN8 using the following primer:
The PCR conditions were as follows: 1 min at 94° C., 35 cycles of 15 s at 94° C., 1 min at 58-62° C., and 1 min 30 s at 72° C., and finally, 5 min at 72° C. 25

The target in assay [2] is T2, 3HA-PYL8 (Arabidopsis thaliana, UniProt Q9FGM1).
T2 construct: expressed in transfected cells; host or cells: stably transformed Arabidopsis thaliana (Col-0) plants, line oe3HA-PYL8: seedlings or imbibed seeds; seed lines in pyl8-1 background, some crossed with oeDDA1-GFP
T2 sequence (Q9FGM1 1-188): T1 sequence (Q9FGM1 1-188)
Description: In vivo protein degradation assay (cycloheximide time course, immunoblot). The note with it: 8-d-old seedlings treated with cycloheximide, 50 μM ABA. The protocol:
(§1) For protein extraction from seedlings, proteins were extracted in buffer containing 50 mM Tris-HCl pH 7.4, 150 mM NaCl, 10mM MgCl2, 1 mM PMSF, 0.1%NP-40 and 1× complete protease inhibitor (Roche). After centrifugation at 16,000 g at 4° C., the supernatants were collected. This step was repeated twice. For protein extraction from seeds, seeds were frozen in liquid N2 and then homogenized in buffer containing 7 M urea, 2 M thiourea, 4% 3-[(3-cholamidopropyl)dimethylammonio]-1-propanesulfonate (CHAPS; w/v), 18 mM Tris-HCl pH 7.5, 0,2% Triton X100, 1× complete protease inhibitor (Roche). After 10 min incubation at 4° C. with rotation. DTT was added to protein extracts (14 mM final concentration), prior to 20 min incubation at 4° C. Extracts were clarified by centrifugation as afore-mentioned. Protein concentration in final supernatants was determined using a Bio-Rad Protein Assay kit. For in vivo co-immunoprecipitation assays, normalized seedling protein extracts were incubated with 5 μl anti-GFP antibody (Living colors Full length A.V. Polyclonal Antibody, Clontech) for 1 h at 4° C. with rotation. 10 μl of protein A-coupled beads (prewashed twice with 0.1 M Glycine pH 2.7) were added to the samples and incubated for an additional hour at 4° C. with rotation. […]

For assay [3], the target named is T2, 3HA-PYL8. In words: Immunoblot of 3HA-PYL8 levels in imbibed seeds. It counts as in vivo. The note with it: 24 h in MS media with 3 μM ABA. The protocol:
(G) Immunoblot analysis of 3HA-PYL8 levels in seeds corresponding to oe3HA-PYL8/oeDDA1-GFP and control (oe3HA-PYL8) plants. Both lines were in the pyl8-1 background. Prior to protein extraction, imbibed seeds were maintained for 24 h in MS media with or without 3 μM ABA. Anti-HA and anti-RPT5 antibodies were used to detect 3HA-PYL8 and for loading control purposes, respectively.
as §1, with “kit.” for “kit. For in vivo co-immunoprecipitation assays, normalized seedling protein extracts were incubated with 5 μl anti-GFP antibody (Living colors Full length A.V. Polyclonal Antibody, Clontech) for 1 h at 4° C. with rotation. 10 μl of protein A-coupled beads (prewashed twice with 0.1 M Glycine pH 2.7) were added to the samples and incubated for an additional hour at 4° C. with rotation.”

For the compound `CC1=CC(=O)CC(C)(C)[C@@]1(O)/C=C/C(C)=C\C(=O)O` [ABA, abscisic acid], the Kd in assay [1] was 20 to 40 nM. Moreover, the PYL8 gene expression result in the assay with PYL8 gene expression is “reduces PYL8 gene expression”. Besides, in the assay with HA-PYL8 transcript, the HA-PYL8 transcript levels entry is recorded as “reduced HA-PYL8 transcript levels”. The 3HA-PYL8 degradation result at 3HA-PYL8 [2] is “blocked 3HA-PYL8 degradation”. At 3HA-PYL8 [3], the “3HA-PYL8 accumulation in seeds” value is “increased accumulation of 3HA-PYL8”.
